According to patent US11224609B2, “Mithramycin derivatives having increased selectivity and anti-cancer activity” (University of Kentucky Research Foundation, priority 2017, dated 2022):
“And” between values parts separate entries of the source, which are not always exact repeats. Identical values can stand only once. Like-named read-outs stand apart in the source and are kept apart here.

Key:
[1] = tested on: A-673 Ewing sarcoma cells (EWS-FLI1 Type 1); assay: 72 h GI50 assay in A-673; settings: read-out: A-673 EWS-FLI1 Type 1 GI50; 72 h growth inhibition
DMS 114 cells = assay: 72 h GI50 assay in DMS 114; settings: read-out: DMS 114 GI50; 72 h growth inhibition
[2] = tested on: Ewing sarcoma cell lines (TC-32, 5838, RD-ES, TC-71, A-673, ES-2, ES-7, ES-8); assay: Median GI50 in panel of Ewing sarcoma cell lines; settings: for Ratio of Median GI50 non-Ewing sarcoma:Ewing sarcoma (Selectivity Index): median GI50 non-Ewing panel over Ewing panel; for Selectivity Index ratio Analogues:MTM (1): selectivity index relative to MTM (1); for GI50: read-out: Median GI50 in Ewing sarcoma cell lines, median over 8 Ewing sarcoma cell lines, 72 h
[3] = tested on: PC-3 (prostate cancer, no ETS translocation) cell line; assay: 72 h growth inhibition (GI50) assay in PC-3; settings: read-out: PC-3 Prostate cancer No ETS Translocation GI50
HCT 116 cells = assay: 72 h GI50 assay in HCT 116; settings: read-out: HCT 116 GI50; 72 h growth inhibition
DU 145 cells = assay: 72 h GI50 assay in DU 145; settings: read-out: DU 145 GI50; 72 h growth inhibition
[4] = tested on: VCaP prostate cancer cells (TMPRSS2-ERG); assay: 72 h GI50 assay in VCaP; settings: for GI50: read-out: VCaP Prostate Cancer TMPRSS2-ERG GI50, 72 h growth inhibition, VCaP cells; for Ratio of median GI50 Prostate cells lacking TMPRSS2-ERG:VCaP: selectivity for VCaP over other prostate cancer cell lines
HeLa cells = assay: 72 h GI50 assay in HeLa; settings: read-out: HeLa GI50; 72 h growth inhibition
[5] = tested on: ES-7 Ewing sarcoma cells (EWS-FLI1 Type 4); assay: 72 h GI50 assay in ES-7; settings: read-out: ES-7 EWS-FLI1 Type 4 GI50; 72 h growth inhibition
[6] = tested on: RD-ES Ewing sarcoma cells (EWS-FLI1 Type 2); assay: 72 h GI50 assay in RD-ES; settings: read-out: RD-ES EWS-FLI1 Type 2 GI50; 72 h growth inhibition
[7] = tested on: prostate cell lines lacking TMPRSS2-ERG; assay: Median GI50 in prostate cell lines lacking TMPRSS2-ERG; settings: read-out: Median GI50 in prostate cell lines, lacking TMPRSS2-ERG; unit inferred
[8] = tested on: TC-71 Ewing sarcoma cells (EWS-FLI1 Type 1); settings: 72 h growth inhibition
A549 cells = assay: 72 h GI50 assay in A549; settings: read-out: A549 GI50; 72 h growth inhibition
[9] = tested on: TC-32 (Ewing sarcoma, EWS-FLI1 Type 1) cell line; settings: for TC-32 Ewing sarcoma EWS-FLI1 Type 1 GI50: 72 h growth inhibition, TC-32 cells; for GI50 ratio PC-3:TC-32: selectivity, GI50 in PC-3 over GI50 in TC-32
[10] = tested on: ES-2 Ewing sarcoma cells (EWS-FLI1 Type 3); assay: 72 h GI50 assay in ES-2; settings: read-out: ES-2 EWS-FLI1 Type 3 GI50; 72 h growth inhibition
[11] = tested on: ES-8 Ewing sarcoma cells (EWS-FLI1 Type 2); assay: 72 h GI50 assay in ES-8; settings: read-out: ES-8 EWS-FLI1 Type 2 GI50; 72 h growth inhibition
[12] = tested on: 5838 Ewing sarcoma cells (EWS-ERG); assay: 72 h GI50 assay in 5838; settings: for GI50: read-out: 5838 Ewing Sarcoma EWS-ERG GI50, 72 h growth inhibition, 5838 cells; for Ratio of median GI50 Non-Ewing sarcoma cell lines (cf Table 3):5838: selectivity for 5838 cells
PANC-1 cells = assay: 72 h GI50 assay in PANC-1; settings: read-out: PANC-1 GI50; 72 h growth inhibition
LNCaP cells = assay: 72 h GI50 assay in LNCaP; settings: read-out: LNCaP GI50; 72 h growth inhibition
CMV promoter = CMV promoter luciferase reporter assay in stably transfected TC-32 cells (non-specific control); assay type: cell-based; settings: 12 h; for CMV promoter driven luciferase signal: treated up to 10 μM
Excerpt: Full-length NR0B1 promoter sequence was PCR amplified using Q5 high-fidelity DNA polymerase (New England Biolabs, Ipswich, Mass.) from genomic DNA of TC-32 cells and cloned into the pGLUC-Basic 2 vector (New England Biolabs, Ipswich, Mass.). XhoI and KpnI restriction sites were incorporated into the primers. After restriction enzyme (New England Biolabs, Ipswich, Mass.) digest and purification by gel electrophoresis, the target amplicon was ligated into the pGLUC-Basic 2 vector using T4 DNA ligase (Thermo Fisher Scientific, Waltham, Mass.). Chemically competent TOP10 E. coli cells were used to propagate vectors under ampicillin selection (100 μg/mL) (Thermo Fisher Scientific, Waltham, Mass.). The resulting vectors were extracted and purified using GeneJET plasmid prep kit (Thermo Fisher Scientific, Waltham, Mass.). The purified vector was transfected into TC-32 cells using lipofectamine 3000 (Thermo Fisher Scientific, Waltham, Mass.) with subsequent G418 selection (1 mg/mL) (VWR, Radnor, Pa.). Separately, TC-32 cells were transfected with pCMV-Red Firefly Vector (Thermo Fisher Scientific, Waltham, Mass.) with subsequent puromycin selection (0.1 mg/mL) (Sigma, St. Louis, Mo.) as a control.
Selected TC-32 cells, expressing either NR0B1 or CMV luciferase reporter vectors, were seeded in clear 96-well plates at a density of 10,000 cells/well. […] After a 12 h treatment, media was removed and cells were washed 3 times with DPBS (Thermo Fisher Scientific, Waltham, Mass.). Cells were directly lysed on a plate shaker for 30 min at room temperature using 100 μL of passive membrane lysis solution. Lysates (80 μL) were transferred to a white luminescence plate. Luciferase substrate, either coelenterazine or D-luciferin (50 μL of 1× solution), for NR0B1 or CMV vectors, respectively, was added in a Glomax 96 microplate luminometer (Promega, Madison, Wis.) and luminescence was immediately measured. Delay before and after injections were set to the default of 0.4 s and a 10 s integration time was used. All reagents used in this assay were from the dual luciferase reporter assay system (Promega, Madison, Wis.). Concurrently, an additional 96 well plate was seeded and treated under the exact same conditions to determine cell viability using resazurin assay. Luminescence results were normalized to cell viability.

[13] = 72 h growth inhibition, PC-3 cells

| Compound | GI50 [1] [nM] | GI50 (DMS 114 cells) [nM] | Ratio of Median GI50 non-Ewing sarcoma:Ewing sarcoma (Selectivity Index) [2] | Selectivity Index ratio Analogues:MTM (1) [2] | GI50 [3, 13] [nM] | GI50 (HCT 116 cells) [nM] | GI50 (DU 145 cells) [nM] | GI50 [4] [nM] | Ratio of median GI50 Prostate cells lacking TMPRSS2-ERG:VCaP [4] | GI50 (HeLa cells) [nM] | GI50 [5] [nM] | GI50 [6] [nM] | TC-71 EWS-FLI1 Type 1 GI50 [8] [nM] | GI50 (A549 cells) [nM] | TC-32 Ewing sarcoma EWS-FLI1 Type 1 GI50 [9] [nM] | GI50 ratio PC-3:TC-32 [9] | GI50 [10] [nM] | GI50 [11] [nM] | GI50 [12] [nM] | GI50 (PANC-1 cells) [nM] | further results |
| --- | --- | --- | --- | --- | --- | --- | --- | --- | --- | --- | --- | --- | --- | --- | --- | --- | --- | --- | --- | --- | --- |
| COC(=O)C(Cc1cn(C)c2ccccc12)NC(=O)C(OC)C1Cc2cc3cc(OC4CC(OC5CC(O)C(O)C(C)O5)C(O)C(C)O4)c(C)c(O)c3c(O)c2C(=O)C1OC1CC(OC2CC(OC3CC(C)(O)C(O)C(C)O3)C(O)C(C)O2)C(O)C(C)O1 (centres unmarked) [Analogue 45] | 1010 | 1050 | 2.4 | 1.6 | 1560 | 826 | 761 | 307 | 5.1 | 1760 | 672 | 539 | 696 | 2370 | 139 | 11.2 | 1500 | 1330 | 121 | 1730 | GI50 [7]: 1560 nM; fold increase in selectivity ([9]; PC-3:TC-32 selectivity, comparator not stated): ~4 fold; Ratio of median GI50 Non-Ewing sarcoma cell lines (cf Table 3):5838 [12]: 13.3; GI50 (LNCaP cells): 1860 nM |
| C=CCOc1ccc2[nH]cc(CC(NC(=O)C(OC)C3Cc4cc5cc(OC6CC(OC7CC(O)C(O)C(C)O7)C(O)C(C)O6)c(C)c(O)c5c(O)c4C(=O)C3OC3CC(OC4CC(OC5CC(C)(O)C(O)C(C)O5)C(O)C(C)O4)C(O)C(C)O3)C(=O)OC)c2c1 (centres unmarked) [Analogue 51] | 272 | 2840 | 1.1 | 0.7 | 454 | 380 | 298 | 485 | 0.9 | 1710 | 1660 | 843 | 636 | 1540 | 53 | 8.6 | 5370 | 90 | 24 | 532 | GI50 [2]: 485 nM; GI50 [7]: 454 nM; Ratio of median GI50 Non-Ewing sarcoma cell lines (cf Table 3):5838 [12]: 22.2; GI50 (LNCaP cells): 2230 nM |
| COC(=O)C(Cc1ccccc1)NC(=O)C(Cc1c[nH]c2ccccc12)NC(=O)C(OC)C1Cc2cc3cc(OC4CC(OC5CC(O)C(O)C(C)O5)C(O)C(C)O4)c(C)c(O)c3c(O)c2C(=O)C1OC1CC(OC2CC(OC3CC(C)(O)C(O)C(C)O3)C(O)C(C)O2)C(O)C(C)O1 (centres unmarked) [Analogue 59, MTMSA-Trp-Phe] | 238 | 18 | 2.4 and < 3 | 1.6 | 75 | 82 | 67 | 21 | 3.6 | 397 |  | 54 | 19 | 1940 | 37 | 2.0 | 125 | 74 | 39 | 152 | GI50 [2]: 64 nM; Ratio of median GI50 Non-Ewing sarcoma cell lines (cf Table 3):5838 [12]: 3.9; GI50 (LNCaP cells): 697 nM; CMV driven luciferase expression decreased down to (CMV promoter; concentrations between 1 and 10 μM): ~75%; CMV promoter driven luciferase signal (CMV promoter): decreased; CMV promoter driven luciferase signal (CMV promoter; listed as MTMSA-Trp-Phe (59)): reduces |
| COC(=O)C(Cc1cn(C)c2ccccc12)NC(=O)C(Cc1cn(C)c2ccccc12)NC(=O)C(OC)C1Cc2cc3cc(OC4CC(OC5CC(O)C(O)C(C)O5)C(O)C(C)O4)c(C)c(O)c3c(O)c2C(=O)C1OC1CC(OC2CC(OC3CC(C)(O)C(O)C(C)O3)C(O)C(C)O2)C(O)C(C)O1 (centres unmarked) [Analogue 62] |  |  |  |  | > 10000 |  |  |  |  |  |  |  |  |  | 7834 |  |  |  |  |  |  |
| COC(=O)C(Cc1ccccc1)NC(=O)C(Cc1ccccc1)NC(=O)C(OC)C1Cc2cc3cc(OC4CC(OC5CC(O)C(O)C(C)O5)C(O)C(C)O4)c(C)c(O)c3c(O)c2C(=O)C1OC1CC(OC2CC(OC3CC(C)(O)C(O)C(C)O3)C(O)C(C)O2)C(O)C(C)O1 (centres unmarked) [Analogue 63, MTMSA-Phe-Phe] | 491 | 2310 | 3.5 | 2.3 | 1130 | 437 | 159 | 442 | 2.6 | 1770 | 910 | 3050 | 211 |  | 232 | 4.9 |  | 542 | 579 | 1960 | Ratio of median GI50 Non-Ewing sarcoma cell lines (cf Table 3):5838 [12]: 3.4 |
| CO[C@H](C(=O)O)[C@@H]1Cc2cc3cc(OC4CC(OC5CC(O)[C@H](O)C(C)O5)[C@H](O)C(C)O4)c(C)c(O)c3c(O)c2C(=O)[C@H]1OC1CC(OC2CC(OC3CC(C)(O)[C@H](O)C(C)O3)[C@@H](O)C(C)O2)[C@H](O)C(C)O1 (some centres unmarked) [MTMSA (2), Mithramycin SA, reference compound] |  |  |  |  |  |  |  |  |  |  |  |  |  |  | >10000 |  |  |  |  |  | GI50 ([3]; Homo sapiens, PC-3, 72 h): > 10000 nM |
| Mithramycin SA Phenylalanine [MTMSA-Phe (4), reference compound] |  | 483 |  |  | 910 | 256 | 315 |  |  | 545 | 156 | 91 | 143 | 1240 | 32 |  | 261 | 72 |  | 261 | GI50 [2]: 117 nM |
